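Tested at 5 concentrations; 48 h exposure; 96-well plates; endpoints linearly interpolated, else capped at highest concentration. At the GI50, growth is halved.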 The source made the active and inactive calls. Rule as the data show it: active = GI50 up to about 1.1 µM and inactive = higher.
Assays:
Assay in all cases: inhibition of tumour cell growth, NCI panel, 48 h
HCT-15 = system: HCT-15
HCT-116 = system: HCT-116
IGROV-1 = system: IGROV-1
SN12C = system: SN12C
NCI-H23 = system: NCI-H23
SNB-75 = system: SNB-75
UACC-62 = system: UACC-62
SNB-19 = system: SNB-19
Malme-3M = system: Malme-3M
TK-10 = system: TK-10
EKVX = system: EKVX
ACHN = system: ACHN
SK-MEL-5 = system: SK-MEL-5
A498 = system: A498
CAKI-1 = system: CAKI-1

Compound	GI50 (HCT-15) [µM]	GI50 (HCT-116)	GI50 (IGROV-1)	GI50 (SN12C)	GI50 (NCI-H23)	GI50 (SNB-75)	GI50 (UACC-62)	GI50 (SNB-19)	GI50 (Malme-3M)	GI50 (TK-10)	GI50 (EKVX)	GI50 (ACHN)	GI50 (SK-MEL-5)	GI50 (A498)	GI50 (CAKI-1)
O=C(CC(O)(c1ccccc1)c1ccc(Cl)cc1)NC(=O)c1ccccc1O (centres undefined)	4.12	11.7 µM (inactive)	5.75 µM (inactive)	3.76 µM (inactive)	6.5 µM (inactive)	6.44 µM (inactive)	6.04 µM (inactive)	4.47 µM (inactive)	14.9 µM (inactive)	13.2 µM (inactive)	20.7 µM (inactive)	4.49 µM (inactive)	6.52 µM (inactive)	1.95 µM (inactive)	3.95 µM (inactive)
O=C(Cc1nc2sc3c(c2c(=O)[nH]1)CCCC3)Nc1ccccc1	> 100	> 100 µM (inactive)	> 100 µM (inactive)	> 100 µM (inactive)	> 100 µM (inactive)	25.1 µM (inactive)	> 100 µM (inactive)	81.8 µM (inactive)	> 100 µM (inactive)	> 100 µM (inactive)	> 100 µM (inactive)	> 100 µM (inactive)	> 100 µM (inactive)	> 100 µM (inactive)	> 100 µM (inactive)
Oc1cccc(-c2cccc(O)n2)n1	> 100	> 100 µM (inactive)	> 100 µM (inactive)	> 100 µM (inactive)	> 100 µM (inactive)	> 100 µM (inactive)	> 100 µM (inactive)	–	> 100 µM (inactive)	> 100 µM (inactive)	> 100 µM (inactive)	> 100 µM (inactive)	> 100 µM (inactive)	–	> 100 µM (inactive)
Cn1nc(-c2cccc(-c3nn(C)/c(=N\CCO)s3)n2)s/c1=N/CCO	> 100	> 100 µM (inactive)	> 100 µM (inactive)	> 100 µM (inactive)	> 100 µM (inactive)	> 100 µM (inactive)	> 100 µM (inactive)	> 100 µM (inactive)	–	–	> 100 µM (inactive)	> 100 µM (inactive)	> 100 µM (inactive)	> 100 µM (inactive)	–
CC(=O)OC1(Sc2ccccc2)CC2[C@H]3COC(C)(C)O[C@H]3CC[C@@]2(C)CC1=O (some centres undefined)	34.9	65.3 µM (inactive)	21.3 µM (inactive)	23.4 µM (inactive)	21.4 µM (inactive)	23.2 µM (inactive)	30.1 µM (inactive)	71.9 µM (inactive)	99.3 µM (inactive)	> 100 µM (inactive)	57.7 µM (inactive)	41.5 µM (inactive)	21.3 µM (inactive)	–	48.8 µM (inactive)
COc1ccc(/N=c2\ssc3c(=S)ssc23)cc1	18.3	26 µM (inactive)	5.94 µM (inactive)	37.8 µM (inactive)	34.5 µM (inactive)	19.4 µM (inactive)	20.2 µM (inactive)	–	34.9 µM (inactive)	57.9 µM (inactive)	–	23.8 µM (inactive)	19.4 µM (inactive)	–	91.4 µM (inactive)
Cc1cc(C)c2c(c1)Nc1ccccc1P2c1ccccc1 (centres undefined)	16.9	–	27.8 µM (inactive)	9.82 µM (inactive)	25.9 µM (inactive)	23.7 µM (inactive)	28.9 µM (inactive)	26.7 µM (inactive)	24.5 µM (inactive)	40.2 µM (inactive)	23.5 µM (inactive)	> 10 µM (inactive)	–	–	11 µM (inactive)
CC12C3CC4C5CC(C(C53)[C@@H]1NCc1ccccc1)C42 (some centres undefined)	78.9	> 100 µM (inactive)	> 100 µM (inactive)	> 100 µM (inactive)	> 100 µM (inactive)	> 100 µM (inactive)	> 100 µM (inactive)	> 100 µM (inactive)	> 100 µM (inactive)	> 100 µM (inactive)	> 100 µM (inactive)	> 100 µM (inactive)	31.5 µM (inactive)	> 100 µM (inactive)	79.8 µM (inactive)
COC(=O)n1c(CBr)c(Br)c2ccccc21	42.2	39.4 µM (inactive)	20.9 µM (inactive)	–	22.7 µM (inactive)	10.8 µM (inactive)	28.1 µM (inactive)	44.9 µM (inactive)	79.6 µM (inactive)	33.1 µM (inactive)	–	18.6 µM (inactive)	51.5 µM (inactive)	–	23.8 µM (inactive)
CCCCCCCCOCC(O)CO (centres undefined)	> 100	> 100 µM (inactive)	> 100 µM (inactive)	> 100 µM (inactive)	> 100 µM (inactive)	43.3 µM (inactive)	> 100 µM (inactive)	> 100 µM (inactive)	> 100 µM (inactive)	> 100 µM (inactive)	> 100 µM (inactive)	> 100 µM (inactive)	> 100 µM (inactive)	> 100 µM (inactive)	> 100 µM (inactive)
NCCCCC(=O)c1cccnc1	> 100	> 100 µM (inactive)	> 100 µM (inactive)	–	> 100 µM (inactive)	–	> 100 µM (inactive)	> 100 µM (inactive)	> 100 µM (inactive)	> 100 µM (inactive)	> 100 µM (inactive)	–	> 100 µM (inactive)	> 100 µM (inactive)	> 100 µM (inactive)
O=c1c(Cl)c(Cl)cnn1CCc1ccncc1	16.4	16.6 µM (inactive)	17.3 µM (inactive)	18 µM (inactive)	17.3 µM (inactive)	16.6 µM (inactive)	20.8 µM (inactive)	15.6 µM (inactive)	22 µM (inactive)	47.5 µM (inactive)	19.6 µM (inactive)	19.2 µM (inactive)	16.1 µM (inactive)	21.6 µM (inactive)	1.98 µM (inactive)
C=CCCCn1ccc2ccccc21	> 100	> 100 µM (inactive)	> 100 µM (inactive)	> 100 µM (inactive)	> 100 µM (inactive)	> 100 µM (inactive)	75.9 µM (inactive)	> 100 µM (inactive)	> 100 µM (inactive)	> 100 µM (inactive)	> 100 µM (inactive)	> 100 µM (inactive)	> 100 µM (inactive)	> 100 µM (inactive)	–
Cc1ccc(NC(=O)/C(=N/NC(=O)CC#N)C2C(=O)N(c3ccccc3)N=C2N)cc1C (centres undefined)	> 100	> 100 µM (inactive)	> 100 µM (inactive)	> 100 µM (inactive)	> 100 µM (inactive)	> 100 µM (inactive)	> 100 µM (inactive)	> 100 µM (inactive)	> 100 µM (inactive)	> 100 µM (inactive)	> 100 µM (inactive)	> 100 µM (inactive)	> 100 µM (inactive)	> 100 µM (inactive)	> 100 µM (inactive)
CC(C)(CN1CCCCC1)C(=O)/C=C/c1ccc(Cl)cc1	2.65	3.4 µM (inactive)	> 10 µM (inactive)	2.61 µM (inactive)	2.69 µM (inactive)	2.44 µM (inactive)	5.35 µM (inactive)	5.15 µM (inactive)	5.06 µM (inactive)	15.3 µM (inactive)	3.3 µM (inactive)	5.12 µM (inactive)	3.08 µM (inactive)	2.73 µM (inactive)	–
CCCCCCCCCCCCCCCCCC(=O)OCC(C[As](=O)(O)O)OC(=O)CCCCCCCCCCCCCCCCC (centres undefined)	38.4	60.1 µM (inactive)	52.5 µM (inactive)	50.1 µM (inactive)	34 µM (inactive)	29.4 µM (inactive)	> 100 µM (inactive)	20.2 µM (inactive)	30.1 µM (inactive)	33.4 µM (inactive)	> 100 µM (inactive)	34.3 µM (inactive)	> 100 µM (inactive)	> 100 µM (inactive)	65.5 µM (inactive)
CC(C)C1(O)C(c2ccccc2)=C(c2ccccc2)C(c2ccccc2)=C1c1ccccc1	5.22	3.61 µM (inactive)	6.15 µM (inactive)	5.31 µM (inactive)	9.59 µM (inactive)	12.3 µM (inactive)	7.59 µM (inactive)	21.8 µM (inactive)	10.4 µM (inactive)	5.74 µM (inactive)	5.28 µM (inactive)	–	10.6 µM (inactive)	15.2 µM (inactive)	11.7 µM (inactive)
C/C(=N/NS(=O)(=O)c1ccccc1)c1cccc[n+]1[O-]	> 100	> 100 µM (inactive)	> 100 µM (inactive)	> 100 µM (inactive)	> 100 µM (inactive)	> 100 µM (inactive)	> 100 µM (inactive)	> 100 µM (inactive)	–	> 100 µM (inactive)	> 100 µM (inactive)	> 100 µM (inactive)	> 100 µM (inactive)	> 100 µM (inactive)	> 100 µM (inactive)
COC1=NN2C(OC)(c3ccccc3)c3c(-c4ccccc4)sc(-c4ccccc4)c3C2(c2ccccc2)S1 (centres undefined)	> 100	> 100 µM (inactive)	> 100 µM (inactive)	> 100 µM (inactive)	> 100 µM (inactive)	> 100 µM (inactive)	> 100 µM (inactive)	> 100 µM (inactive)	> 100 µM (inactive)	> 100 µM (inactive)	–	> 100 µM (inactive)	–	> 100 µM (inactive)	> 100 µM (inactive)
CC1O[C@@H]2CCCCC(=O)[C@]2(C)[C@H]1C (some centres undefined)	> 100	> 100 µM (inactive)	> 100 µM (inactive)	> 100 µM (inactive)	–	> 100 µM (inactive)	> 100 µM (inactive)	> 100 µM (inactive)	> 100 µM (inactive)	> 100 µM (inactive)	> 100 µM (inactive)	> 100 µM (inactive)	> 100 µM (inactive)	–	> 100 µM (inactive)
CN(C)CCC1(C2=CCCC2)CC/C(=C\c2ccc(Cl)cc2)C1=O (centres undefined)	5.07	8.77 µM (inactive)	7.14 µM (inactive)	11.9 µM (inactive)	14.5 µM (inactive)	6.85 µM (inactive)	3.08 µM (inactive)	11.3 µM (inactive)	6.56 µM (inactive)	11.1 µM (inactive)	7.16 µM (inactive)	11.5 µM (inactive)	1.99 µM (inactive)	6.25 µM (inactive)	7.03 µM (inactive)
